Experiment [1] addresses Transient receptor potential cation channel subfamily V member 1 (Homo sapiens, UniProt Q8NER1). Description: Agonist activity at TRPV1 receptor (unknown origin).
Experiment [2] deals with Transient receptor potential cation channel subfamily V member 1 (Mus musculus) (UniProt Q704Y3). Briefly: Displacement of [3H]resiniferatoxin from TRPV1 in mouse cortical slices. On the technique in general: In a radioligand displacement assay an active substance lowers the binding of a labelled ligand.
Sequence of Transient receptor potential cation channel subfamily V member 1 (Mus musculus) (Q704Y3 whole entry): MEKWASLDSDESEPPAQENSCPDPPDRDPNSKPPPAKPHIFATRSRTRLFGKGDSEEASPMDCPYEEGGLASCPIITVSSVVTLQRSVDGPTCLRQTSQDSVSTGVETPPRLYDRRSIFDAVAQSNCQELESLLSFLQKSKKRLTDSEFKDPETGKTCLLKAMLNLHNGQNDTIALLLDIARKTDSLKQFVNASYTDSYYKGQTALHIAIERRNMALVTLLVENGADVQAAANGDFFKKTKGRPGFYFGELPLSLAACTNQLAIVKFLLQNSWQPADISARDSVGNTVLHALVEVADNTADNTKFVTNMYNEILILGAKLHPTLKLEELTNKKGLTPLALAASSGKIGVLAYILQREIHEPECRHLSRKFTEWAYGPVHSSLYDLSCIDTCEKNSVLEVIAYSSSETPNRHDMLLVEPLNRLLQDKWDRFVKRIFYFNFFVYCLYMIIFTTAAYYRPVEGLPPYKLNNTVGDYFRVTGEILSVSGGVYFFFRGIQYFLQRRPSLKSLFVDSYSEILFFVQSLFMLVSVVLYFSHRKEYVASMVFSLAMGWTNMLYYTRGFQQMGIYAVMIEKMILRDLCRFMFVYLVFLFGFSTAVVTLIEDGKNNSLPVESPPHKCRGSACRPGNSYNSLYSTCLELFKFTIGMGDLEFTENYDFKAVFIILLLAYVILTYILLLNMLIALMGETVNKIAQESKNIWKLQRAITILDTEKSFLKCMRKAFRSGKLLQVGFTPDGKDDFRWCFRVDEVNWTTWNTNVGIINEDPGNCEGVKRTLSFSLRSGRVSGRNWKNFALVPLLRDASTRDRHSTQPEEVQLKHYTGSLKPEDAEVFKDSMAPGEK
Experiment [3] relates to Mus musculus. Description: Antiobesity activity in Sabra mouse assessed as reduction in body weight at 1 mg/kg, ip administered on day 0, 10, 11, 12, 24, 29 measured on day 26 relative to control. In kind it is functional. Conditions: route intraperitoneal. Also on record: scale not given: the % may be the effect or the level left.
The subject of experiment [4] is Mus musculus. Briefly: Antiobesity activity in Sabra mouse assessed as reduction in body weight at 1 mg/kg, ip administered on day 0, 10, 11, 12, 24, 29 measured on day 29 relative to control. In kind it is functional. More on the design: scale not given: the % may be the effect or the level left. Conditions: route intraperitoneal.
Experiment [5] has as its system Mus musculus. Briefly: Antiobesity activity in Sabra mouse assessed as reduction in body weight at 1 mg/kg, ip administered on day 0, 10, 11, 12, 24, 29 measured on day 36 relative to control. In kind it is functional. Also on record: scale not given: the % may be the effect or the level left. Conditions: route intraperitoneal.
In experiment [6] the test system is Mus musculus. Description: Antiobesity activity in Sabra mouse assessed as reduction in body weight at 1 mg/kg, ip administered on day 0, 10, 11, 12, 24, 29 measured on day 24 relative to control. In kind it is functional. More on the design: scale not given: the % may be the effect or the level left. Conditions: route intraperitoneal.
Experiment [7] has as its system Mus musculus. Description: Antiobesity activity in Sabra mouse assessed as reduction in body weight at 1 mg/kg, ip administered on day 0, 10, 11, 12, 24, 29 measured on day 22 relative to control. In kind it is functional. Also on record: scale not given: the % may be the effect or the level left. Conditions: route intraperitoneal.
Experiment [8] relates to Mus musculus. Briefly: Antiobesity activity in Sabra mouse assessed as reduction in body weight at 1 mg/kg, ip administered on day 0, 10, 11, 12, 24, 29 measured on day 33 relative to control. Also on record: scale not given: the % may be the effect or the level left. The following applies: route intraperitoneal. In kind it is functional.
Experiment [9] concerns Mus musculus. Description: Antiobesity activity in Sabra mouse assessed as reduction in body weight at 1 mg/kg, ip administered on day 0, 10, 11, 12, 24, 29 measured on day 12 relative to control. In kind it is functional. Also on record: scale not given: the % may be the effect or the level left. Conditions: route intraperitoneal.
Experiment [10] relates to Mus musculus. Description: Antiobesity activity in Sabra mouse assessed as reduction in body weight at 1 mg/kg, ip administered on day 0, 10, 11, 12, 24, 29 measured on day 19 relative to control. In kind it is functional. Also on record: scale not given: the % may be the effect or the level left. The following applies: route intraperitoneal.
Experiment [11] relates to Mus musculus. Briefly: Antiobesity activity in Sabra mouse assessed as reduction in body weight at 1 mg/kg, ip administered on day 0, 10, 11, 12, 24, 29 measured on day 39 relative to control. In kind it is functional. Also on record: scale not given: the % may be the effect or the level left. The following applies: route intraperitoneal.

The structures appear in SMILES notation. Calls of active or inactive are those of the source. The calls are words filed in the database; no cut-off is given here.

The source of these data is ChEMBL document CHEMBL2321853, “Novel acylethanolamide derivatives that modulate body weight through enhancement of hypothalamic pro-opiomelanocortin (POMC) and/or decreased neuropeptide Y (NPY)” (J Med Chem, 2013).

Sequence of Transient receptor potential cation channel subfamily V member 1 (Q8NER1 whole entry): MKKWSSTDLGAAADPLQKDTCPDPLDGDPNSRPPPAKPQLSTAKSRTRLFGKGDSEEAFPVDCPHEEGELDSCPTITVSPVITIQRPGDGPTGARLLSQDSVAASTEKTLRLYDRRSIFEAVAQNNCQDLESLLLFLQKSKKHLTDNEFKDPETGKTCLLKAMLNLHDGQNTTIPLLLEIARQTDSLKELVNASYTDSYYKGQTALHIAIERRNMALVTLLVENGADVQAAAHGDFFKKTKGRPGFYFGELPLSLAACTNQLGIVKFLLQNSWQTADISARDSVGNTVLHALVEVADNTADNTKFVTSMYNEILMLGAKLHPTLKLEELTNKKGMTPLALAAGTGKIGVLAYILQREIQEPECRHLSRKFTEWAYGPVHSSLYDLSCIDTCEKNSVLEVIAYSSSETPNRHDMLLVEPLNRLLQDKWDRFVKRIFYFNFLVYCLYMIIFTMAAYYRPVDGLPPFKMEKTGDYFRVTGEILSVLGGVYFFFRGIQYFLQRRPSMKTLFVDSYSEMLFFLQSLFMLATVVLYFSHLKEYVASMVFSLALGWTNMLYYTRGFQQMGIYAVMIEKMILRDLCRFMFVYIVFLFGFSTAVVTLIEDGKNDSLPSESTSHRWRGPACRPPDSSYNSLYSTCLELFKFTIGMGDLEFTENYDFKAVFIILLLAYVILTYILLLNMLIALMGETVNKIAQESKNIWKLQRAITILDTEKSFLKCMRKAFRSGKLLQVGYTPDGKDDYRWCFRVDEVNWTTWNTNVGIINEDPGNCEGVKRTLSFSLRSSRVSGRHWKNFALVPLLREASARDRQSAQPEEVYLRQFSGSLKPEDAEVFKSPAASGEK

Regarding `CCCCC/C=C\C/C=C\CCCCCCCC(=O)NCCO` [LINOLEOYLETHANOLAMIDE], in experiment [1], it took 630 nM to reach a half-maximal effect (EC50).
Turning to `CCCCCCCCCCCCCCCCCC(=O)NCCO`, the outcome in experiment [2] was inactive.
As for `CCCCCCCC/C=C\CCCCCCCC(=O)N[C@@H](C)CO`, the Activity with Mus musculus [3] is -0.5%; in the experiment with Mus musculus [4], -3.66%; with Mus musculus [5], -2.56%; with Mus musculus [6] it was -1.57%; with Mus musculus [7] it was -2.24%; in the experiment on Mus musculus [8] it was -1.63%. For the same compound, the Activity is reported as -1.8% with Mus musculus [9], -2.24% with Mus musculus [10] and -3.58% with Mus musculus [11].
